In data set [1] the test system is cardiac β-receptors (beta 1). Kind of data set: Beta-receptor blocking activity: inhibition of isoprenaline (1 mcg/kg i.v.) induced heart rate increase (beta 1-blockage) in rabbits. The conditions noted are these: for β1-Blockade ID30 fcor / β1-Blockade ID50 fcor: i.v., rabbits; for β1-Blockade ID30 fcor: 30% inhibition of isoprenaline effect on heart rate; for β1-Blockade ID50 fcor: 50% inhibition of isoprenaline effect on heart rate. The format is in vivo, rabbit. The procedure:
Rabbits were fixed in wooden cages and the blood pressure derived using a catheter placed in the lateral ear artery (details as under 2.). From the blood pressure pulsations, the heart rate was digitally read using an integrator. The beta-receptor blocking quality was determined by measuring inhibitory action against 1 mcg/kg i.v. isoprenaline.

For data set [2], the system named is CSE reflex (arterial blood pressure). The data set is described as follows: Vasodilating activity: weakening of the carotid occlusion (CSE) reflex blood pressure rise in anesthetized rabbits. The format is in vivo, rabbit. The conditions noted are these: for ED (30 mm Hg): Oryctolagus cuniculus, iv; for BQ (ID50 fcor / ED-30 mm Hg): ratio of beta-blocking ID50 to vasodilating ED-30. The procedure: Rabbits were anesthetized with 26%-urethane 5 ml/kg i.v. For a continual measurement of the arterial blood pressure a catheter was implanted into the Arteria femoralis. The blood pressure was measured by means of an electromechanical pressure transducer (Statham P 23/Db). The impulses were registered on a direct printer and after calibration evaluated with a mercury manometer. After determining the starting value, both carotid arteries (Aa. carotides) were occluded for 2 min and thereby the blood pressure temporarily raised (Carotis-Sinus-Relief Reflex-CSE). Following that, the substances were injected in increasing doses and 8 min. later the CSE reflex induced again. In periods of 15 min each, in logarithmically rising dosage (factor 2), the test substance was injected again and the CSE value induced again. Substances which under these conditions weaken the rise of the blood pressure under CSE can be regarded as vasodilating. To estimate the blood pressure lowering quality, the dose was calculated which weakens the CSE reflex by 30 mm Hg (ED-30 mm Hg).

Data set [3] is described as follows: Tolerability of i.v. doses. The conditions noted are these: in vivo, iv.
Where [4] appears, read: read-out: Vasodilatation CSE ED-30.
Setting [5] is: dose weakening the CSE reflex by 30 mm Hg, anesthetized rabbits, read-out: Vasodilatation CSE ED-30.
The mark [6] stands for this setting: statement in text on reference substances, read-out: ED-30 (vasodilating quality).

Read-outs that look alike come from different tables or passages of the source. A value given as a limit tells only on which side of the number the result lay.

The values below come from patent publication US4642309A, “Indolin-2-one derivatives preparation thereof and intermediates for the preparation thereof” (Boehringer Mannheim GmbH, priority 1983, dated 1987).

Regarding `CC(C)NCC(O)COc1cccc2ccccc12` (stereo not drawn) [Propranolol, 1-(isopropylamino)-3-(1-naphthyloxy)-2-propanol, reference compound], in data set [1], the “beta-blocking activity (in words)” value is “potent beta-blockers” and the “β1-Blockade ID30 fcor” value worked out at 126 µg/kg. Moreover, in data set [2], the “vasodilating quality (in words)” value is listed as “do not have or at least do not have any relevantly vasodilating quality” and the “BQ (ID50 fcor / ED-30 mm Hg)” value was 0,01. Moreover, the ED (30 mm Hg) in data set [2] (read-out: ED-30 (vasodilating quality)) is above 9 mg/kg. Moreover, the ED (30 mm Hg) in data set [2] (setting [4]) was 30 mg/kg. Moreover, the MTD in data set [3] (not tolerated at all, read-out: dose above which not tolerated at all) was above 30 mg/kg. In addition, the MTD in data set [3] (poorly tolerated, read-out: dose above which poorly tolerated) is above 10 mg/kg.
In the case of `CC(C)NCC(O)COc1cccc2c1CC(=O)N2` (stereo not drawn) [BM 14.171, 4-(2-hydroxy-3-isopropylaminopropoxy)oxindol, reference compound], in data set [1], the “beta-blocking activity (in words)” value is given as “potent beta-blockers”, the “β1-Blockade ID30 fcor” value is on record as 1,2 mcg/kg and the “β1-Blockade ID50 fcor” value was 4,3 mcg/kg. In data set [2], the “vasodilating quality (in words)” value is “do not have or at least do not have any relevantly vasodilating quality” and the “BQ (ID50 fcor / ED-30 mm Hg)” value is on record as 0,0004. Further, the ED (30 mm Hg) in data set [2] (setting [5]) turned out to be 11.6 mg/kg. Further, the ED (30 mm Hg) in data set [2] (setting [6]) was above 9 mg/kg.
In the case of `CSc1ccc(C=C2C(=O)Nc3cccc(OCC(O)CNC(C)C)c32)c(O)c1` (stereo not drawn) [Example 1d, 4-(2-hydroxy-3-isopropylaminopropoxy)-3-(2-hydroxy-4-methylthiobenzylidene)-indolin-2-one], in data set [1], the “β1-Blockade ID30 fcor” value was determined as 21 µg/kg and the “β1-Blockade ID50 fcor” value was 46 µg/kg. Besides, the ED (30 mm Hg) in data set [2] (setting [5]) amounted to 1.48 mg/kg. In data set [2], the “BQ (ID50 fcor / ED-30 mm Hg)” value is listed as 0,03.
`O=C1Nc2cccc(OCC(O)CNCCOc3ccccc3)c2C1=Cc1ccn[nH]1` (stereo not drawn) [Example 1u, 4-[2-hydroxy-3-(2-phenoxyethylamino)-propoxy]-3-(pyrazol-5-yl)-methyleneindolin-2-one]: in data set [1], the “β1-Blockade ID30 fcor” value is 9,9 mcg/kg and the “β1-Blockade ID50 fcor” value was determined as 58 µg/kg. Further, the ED (30 mm Hg) in data set [2] (setting [5]) is 0.331 mg/kg. Further, the “BQ (ID50 fcor / ED-30 mm Hg)” value in data set [2] is 0,18.
Regarding `COc1ccc(CCNCC(O)COc2cccc3c2CC(=O)N3)cc1` (stereo not drawn) [BM 12.946, 4-<2-hydroxy-3-[2-(4-methoxyphenyl)ethylamino]propoxy>oxindol, reference compound], in data set [1], the “beta-blocking activity (in words)” value is listed as “potent beta-blockers”, the “β1-Blockade ID30 fcor” value was 46 µg/kg and the “β1-Blockade ID50 fcor” value amounted to 188 µg/kg. Also, in data set [2], the “vasodilating quality (in words)” value is on record as “do not have or at least do not have any relevantly vasodilating quality” and the “BQ (ID50 fcor / ED-30 mm Hg)” value is 0,02. Besides, in data set [2] (setting [5]), the ED (30 mm Hg) stood at 9.13 mg/kg. Also, the ED (30 mm Hg) in data set [2] (setting [6]) is above 9 mg/kg.
Take `O=C(O)/C=C/C(=O)O.O=C1Nc2cccc(OCC(O)CNCCOc3ccccc3)c2C1Cc1ccn[nH]1` (stereo not drawn) [Example 7f, 4-[2-hydroxy-3-(2-phenoxyethylamino)-propoxy]-3-(pyrazol-5-yl-methyl)-indolin-2-one fumarate]: in data set [1], the “β1-Blockade ID30 fcor” value was found to be 334 µg/kg and the “β1-Blockade ID50 fcor” value came out at 1020 µg/kg. In data set [2] (setting [5]), the ED (30 mm Hg) was determined as 0.43 mg/kg. Also, the “BQ (ID50 fcor / ED-30 mm Hg)” value in data set [2] is on record as 2,37.
For `O=C1Nc2cccc(OCC(O)CNCCOc3ccc(O)cc3)c2C1=Cc1ccccc1C(=O)O` (stereo not drawn) [Example 1r, 4-{2-hydroxy-3-[2-(4-hydroxyphenoxy)-ethylamino]-propoxy}-3-(2-carboxybenzylidene)-indolin-2-one] the same measures were 205 µg/kg, 823 µg/kg, 2.03 mg/kg and 0,41.
For `O=C1Nc2cccc(OCC(O)CNCCOc3ccc(O)cc3)c2C1Cc1ccccc1O` (stereo not drawn) [Example 7d, 4-{2-hydroxy-3-[2-(4-hydroxyphenoxy)-ethylamino]-propoxy}-3-(2-hydroxybenzyl)-indolin-2-one cyclohexylsulphaminate] the same measures were 27 µg/kg, 85 µg/kg, 0.97 mg/kg and 0,09.
As to `CC(C)NCC(O)COc1cccc2c1C(=Cc1ccccc1O)C(=O)N2` (stereo not drawn) [Example 1a, 4-(2-hydroxy-3-isopropylaminopropoxy)-3-(2-hydroxybenzylidene)-indolin-2-one], in data set [1], the “β1-Blockade ID30 fcor” value was 98 µg/kg and the “β1-Blockade ID50 fcor” value stood at 317 µg/kg. The ED (30 mm Hg) in data set [2] (setting [5]) is 2.71 mg/kg. The “BQ (ID50 fcor / ED-30 mm Hg)” value in data set [2] is on record as 0,12.
On to `O=C(O)c1ccccc1.O=C1Nc2cccc(OCC(O)CNCCOc3ccc(O)cc3)c2C1=Cc1ccccc1O` (stereo not drawn) [Example 1p, 4-{2-hydroxy-3-[2-(4-hydroxyphenoxy)-ethylamino]-propoxy}-3-(2-hydroxybenzylidene)-indolin-2-one benzoate], for which, in data set [1], the “β1-Blockade ID30 fcor” value is 192 µg/kg and the “β1-Blockade ID50 fcor” value amounted to 932 µg/kg. In addition, in data set [2] (setting [4]), the ED (30 mm Hg) came to 0.75 mg/kg. In addition, the “BQ (ID50 fcor / ED-30 mm Hg)” value in data set [2] is given as 1,24.
For `O=C(O)/C=C/C(=O)O.O=C1Nc2cccc(OCC(O)CNCCOc3ccc(O)cc3)c2C1Cc1ccn[nH]1` (stereo not drawn) [Example 7e, 4-{2-hydroxy-3-[2-(4-hydroxyphenoxy)-ethylamino]-propoxy}-3-(pyrazol-5-yl-methyl)-indolin-2-one fumarate], in data set [1], the “β1-Blockade ID30 fcor” value turned out to be 65 µg/kg and the “β1-Blockade ID50 fcor” value was found to be 254 µg/kg. Moreover, the ED (30 mm Hg) in data set [2] (setting [5]) is 0.54 mg/kg. Besides, in data set [2], the “BQ (ID50 fcor / ED-30 mm Hg)” value was 0,47.
